Measured values reported in US9320272B2, “Microbial composition” (Rohm and Haas Company, priority 2011, dated 2016).
Several values for one entry are separate records, joined by “and”; a condition that tells them apart may be missing. Identical values can stand only once.

How the values were obtained:
[1] = test system: Escherichia coli (E. coli - ATCC #10536); test: Automated assessment of efficacy in surfactant base (2.85% sodium cocoyl glycinate + 1.85% sodium lauroamphoacetate, pH 10), 15 seconds exposure; format: cell-based; conditions: for MBC (% w/v): in 2.85% sodium cocoyl glycinate + 1.85% sodium lauroamphoacetate solution at pH 10, E. coli, 15 seconds exposure; for No. of replicates showing growth (out of 4) / Δ OD 450 nm = OD450 (time zero) − OD450 (time = 16 hours), Mean / Δ OD 590 nm OD590 (time = 16 hours) − OD590 (time zero), Mean: model surfactant solution pH 10, 15 s exposure; for Δ OD 450 nm = OD450 (time zero) − OD450 (time = 16 hours), Mean / Δ OD 590 nm OD590 (time = 16 hours) − OD590 (time zero), Mean: 4 replicates
Method: In these examples, the efficacy of combinations of actives were tested in a surfactant cleansing formulation comprising 2.85% sodium cocoyl glycinate and 1.85% sodium lauroamphoacetate.
This corresponds to a 50% in use dilution with water of a neat formulation containing 5.7% cocoyl glycinate and 3.7% sodium lauroamphoacetate during hand washing.
Solutions were prepared such that the concentrations of the surfactant components and test actives were 1.1× the final desired concentration in order to allow for dilution with the bacterial inoculum in the test. The solutions were manually adjusted to pH 10.0 by dropwise addition of sodium hydroxide solution, as measured with a pH meter at ambient temperature.
The efficacy of the combinations of the present invention was determined against Escherichia coli (E. coli—ATCC #10536), at a concentration of approximately 1×10^8 bacteria per mL.
Tests were conducted using standard microliter plate assays using an automated liquid handling system. 270 μl of the surfactant test solution was pipetted into each well of the microtitre plate and 30 μl of the bacterial suspension was then added. After exactly 15 seconds of bacterial exposure, a 30 μl volume of bacterial cells was withdrawn and transferred to 270 μl of D/E quench solution. After 5 minutes in the D/E quench, the optical density (OD) was measured for each plate in turn at two specific wavelengths (450 nm and 590 nm). These provide a dual check of antimicrobial activity, as the OD450 reading is specific for the yellow colour of D/E quench when bacterial growth is observed, whereas OD590 is specific for the initial purple colour of the D/E quench which is retained if no bacterial growth is observed. After the time zero OD measurements, plates were then incubated at 37° C. overnight (16 hours) before repeating the OD measurements. Delta CD values were calculated by subtracting […] the initial value at time zero. Bacterial growth is observed as an increase in OD450 and a decrease in ΔOD590. To identify antibacterially efficacious systems (those preventing appreciable bacterial growth after incubation), the following threshold changes in OD readings have been adopted: if (1), OD450 increases by less than 0.2 absorbance unit on incubation and (2), OD590 decreases by less than 0.35 unit on incubation. Conversely, where OD450 increases by more than 0.2 AU and OD590 decreases by more than 0.35 unit after incubation, corresponding to a colour shift from purple to yellow, the test system allows bacterial growth and is not deemed efficacious. Four replicate measurements in the same plate have been made for each test system. The number of replicate wells showing either bacterial growth or no growth is also readily assessed by eye by following the colour change.
Dose responses for individual components and binary mixtures of actives at a fixed concentration ratio were generated by sequential dilution of liquors with further surfactant solution to obtain a series of endpoints.
In some selected cases, the combinations were also tested at the weight ratio 1.1.

[2] = test system: Escherichia coli (E. coli - ATCC #10536); test: Synergy test: high resolution MBC microtiter plate assay in phosphate buffer containing 35% dipropylene glycol, 15 seconds contact; format: cell-based; conditions: for SI (Synergy Index = Qa/QA + Qb/QB): E. coli 10536, less than one = synergy, one = additivity, greater than one = antagonism
From the text: One measure of synergy is the industrially accepted method described by Kull, F. C.; Eisman, P. C.; Sylwestrowicz, M. D, and Mayer, R. L., in Applied Microbiology 9:538-541 (1961), using the ratio determined by the formula: Qa/QA+Qb/QB=Synergy Index (“SI”) wherein; QA=concentration of compound A (first component) in percent, acting alone, which produced an end point (MBC of Compound A), Qa=concentration of compound A in percent, in the mixture, which produced an end point. QB=concentration of compound B (second component) in percent, acting alone, which produced an end point (MBC of Compound B). Qb=concentration of compound B in percent, in the mixture, which produced an end point.
When the sum of Qa/QA and Qb/QB is greater than one, antagonism is indicated. […] The lower the SI, the greater is the synergy shown by that particular mixture. The minimum biocidal concentration (MBC) of a microbicide is the lowest concentration tested under a specific set of conditions that provides complete kill of the tested microorganisms.
Synergy tests were conducted using standard microliter plate assays with phosphate buffer containing 35% dipropylene glycol (DPG). In this method, a wide range of combinations of chemicals was tested by conducting high resolution. MBC assays of Component (A) in the presence of various concentrations of Component (B). High resolution MBCs were determined by adding varying amounts of microbicide to one column of a microliter plate and doing subsequent […] dilutions using an automated liquid handling system to obtain a series of closely spaced endpoints. The MBC plate was inoculated one column at a time with the test microorganism. An aliquot of the inoculated well was transferred at 15 seconds to a plate containing a neutralizing agent (EVE Neutralizing Broth), mixed and held for 5 minutes before being transferred to a growth plate containing trypticase soy broth (TSB). The TSB plate was incubated at 37° C. and read for the presence/absence of growth at 24 hours. The lowest level tested that provided complete kill (as evidenced by no growth in the microtitre plate) of the test organisms in 15 seconds is the minimum biocidal concentration (MBC).
The synergy of the combinations of the present invention was determined against a bacterium, Escherichia coli (E. coli—ATCC #10536), at a concentration of approximately 1×10^8 bacteria per mL. This microorganism is representative of natural contaminants in many consumer and industrial applications.

[3] = E. coli 10536, complete kill in 15 seconds, phosphate buffer with 35% DPG

| SMILES | MBC (% w/v) [1] | QA: concentration of first component (A) acting alone which produced an end point (MBC of Compound A); Qa with Qb = 0 [2, 3] | SI (Synergy Index = Qa/QA + Qb/QB) [2] | No. of replicates showing growth (out of 4) ([1]; single active at 0.1% w/v) | Δ OD 450 nm = OD450 (time zero) − OD450 (time = 16 hours), Mean ([1]; single active at 0.1% w/v) | Δ OD 590 nm OD590 (time = 16 hours) − OD590 (time zero), Mean ([1]; single active at 0.1% w/v) | No. of replicates showing growth (out of 4) ([1]; single active at 0.2% w/v) | Δ OD 450 nm = OD450 (time zero) − OD450 (time = 16 hours), Mean ([1]; single active at 0.2% w/v) | Δ OD 590 nm OD590 (time = 16 hours) − OD590 (time zero), Mean ([1]; single active at 0.2% w/v) | No. of replicates showing growth (out of 4) ([1]; single active at […] w/v) | Δ OD 450 nm = OD450 (time zero) − OD450 (time = 16 hours), Mean ([1]; single active at […] w/v) | Δ OD 590 nm OD590 (time = 16 hours) − OD590 (time zero), Mean ([1]; single active at […] w/v) | Δ OD 450 nm = OD450 (time zero) − OD450 (time = 16 hours), Mean ([1]; single active at 0.5% w/v) | Δ OD 590 nm OD590 (time = 16 hours) − OD590 (time zero), Mean ([1]; single active at 0.5% w/v) | QB: concentration of second component (B) acting alone which produced an end point (MBC of Compound B); Qb with Qa = 0 [2, 3] |
| --- | --- | --- | --- | --- | --- | --- | --- | --- | --- | --- | --- | --- | --- | --- | --- |
| Oc1ccccc1C1CCCC1 [2-cyclopentylphenol] | >0.2 % w/v | 0.2 weight % and 0.6 weight % and 0.3 weight % | 1.00 |  |  |  |  |  |  |  |  |  |  |  |  |
| Cc1cc(O)c(C(C)C)cc1Cl [4-chloro-2-isopropyl-5-methylphenol, reference compound] | >0.2 % w/v |  |  |  |  |  |  |  |  |  |  |  |  |  |  |
| Cc1cc(O)cc(C)c1Cl [4-chloro-3,5-dimethylphenol] | >0.2 % w/v | 0.6 weight % and 0.3 weight % | 1.00 |  |  |  |  |  |  |  |  |  |  |  |  |
| Oc1ccccc1Cc1ccccc1 [2-hydroxydiphenylmethane] | >0.2 % w/v | 0.8 weight % and 1.0 weight % and 0.6 weight % | 1.00 | 4 | −0.51 | 0.62 | 4 | −0.51 | 0.63 | 4 | −0.49 | 0.64 |  |  |  |
| Oc1ccc(Cc2ccccc2)cc1 [4-hydroxydiphenylmethane] | >0.2 % w/v | 0.6 weight % and 0.5 weight % | 1.00 | 4 | −0.58 | 0.52 | 4 | −0.52 | 0.61 | 4 | −0.55 | 0.54 |  |  |  |
| CC(C)=CCC/C(C)=C\CO [cis-3,7-dimethyl-2,6-octadien-1-ol] | >0.5 % w/v |  |  |  |  |  |  | −0.53 | 0.60 | 4 |  | 0.61 | −0.14 | 0.40 | 0.5 weight % and 0.25 weight % |
